Experimental data: patent US9169241B2, “Quinolinyloxyphenylsulfonamides” (Max-Planck-Gesellschaft Zur Forderung der Wissenschaften …, priority 2009, dated 2015)
Where two headings read alike, the source gives them in different places.

How the values were obtained:
[1] = test system: C8161; assay: Apoptosis assay (Cellomics, nucleus condensation); format: cell-based; conditions: Homo sapiens, Table III, read-out: Apoptosis induction in C8161
Source text: (§1) The Cellomics BioApplication (Thermo Fischer Cellomics Products, Pittsburgh, Pa.) is an automated image analysis algorithm that provides detailed analysis of phenotypes related to apoptosis. As one of the most prominent characteristics of apoptotics cell a nucleus condensation takes place. This can be measured fluorescence signal intensity using a CCD camera on fully automated microscope system. The Cellomics system is able to quantify the fluorescence intensity per single nucleus and calculates the variation of signal intensity in each cell population. […] Additionally the number of detected cell decreases normally in apoptotic cell populations. In detail 5000 cell per 96 well were labeled with DNA intercalating dye (Hoechst 33342, Sigma, Steinheim, Germany) to visualize the nucleus in a fluorescence microscope under live conditions. The apoptosis assay was performed 24 h and 48 h after addition of compound at concentrations 12.5 μM, 6.25 μM, 3.125 μM, 1.56 μM, 0.78 μM, 0.39 μM as well as DMSO control for 48 h.

[2] = test system: Hs578T; assay: Apoptosis assay (Cellomics, nucleus condensation); format: cell-based; conditions: Homo sapiens, Hs-578T, Table III, read-out: Apoptosis induction in Hs578T
Source text: as §1

[3] = test system: SF126; assay: Apoptosis assay (Cellomics, nucleus condensation); format: cell-based; conditions: Homo sapiens, SF-126, Table III, read-out: Apoptosis induction in SF126
Source text: as §1

[4] = test system: SF763; assay: Apoptosis assay (Cellomics, nucleus condensation); format: cell-based; conditions: Table III, read-out: Apoptosis induction in SF763
Source text: as §1

[5] = test system: U118; assay: Apoptosis assay (Cellomics, nucleus condensation); format: cell-based; conditions: Table III, read-out: Apoptosis induction in U118
Source text: as §1

[6] = test system: U138; assay: Apoptosis assay (Cellomics, nucleus condensation); format: cell-based; conditions: Table III, read-out: Apoptosis induction in U138
Source text: as §1

[7] = test system: indicated cell line; assay: Wound healing migration assay (Table IV); format: cell-based; conditions: compounds at 12.5, 6.25, 3.125 μM, 48 h-72 h
Protocol: This method mimics cell migration during wound healing in vivo. The basic steps involve creating a “wound” in a cell monolayer, capturing the images at the beginning and at regular intervals during cell migration to close the wound, and comparing the images to quantify the migration rate of the cells. In detail, 150000 cell/24 well have been seeded and allowed to form a monolayer overnight. Subsequently a “wound” or “scratch” has been performed with a 1000 μl pipette tip. The STDV of wound size is normally below 10% at time point t0. The assay was stopped by fixation with 0.05% Crystal violet/20% methanol when control scratches were closed. The assay was terminated between 48 h and 72 h depending on the migration potential of the indicated cell line. The “wounds” were visualized with a Zeiss Axiovert S100 microscope (Carl Zeiss UK, Welwyn Garden City, UK). The tested compounds were used at 12.5 μM, 6.25, 3.125 μM and DMSO control. IC50 values have been calculated as 50% wound size in between t0 and t48 or t72.

[8] = test system: tumor cell; assay: Matrigel outgrowth assay/branching assay (Table Va); format: cell-based
Protocol: The Matrigel outgrowth assay is based on the ability of tumor cell to penetrate a solid gel of extracellular matrix proteins mimicking the metastasis formation in vivo. While cells with low invasive potential appear as roundish cell or cell cluster, cells with high invasive potential penetrate the Matrigel and form polymorphic structures. In detail 65 μl of Matrigel matrix (Matrigel™ Matrix, BD Biosciences, Bedford, Mass., USA) with a concentration of 3 mg/ml have been polymerized in 96 well plates for 1 h at 37° C. Subsequently 5000 cell/well were seeded into each well containing cell culture medium and indicated compound with concentrations of 3.125 μM, 1.56 μM and 0.78 μM as well as DMSO control. After 48 h, 72 h and 96 h images of cell were taken on an inverted microscope using a 5× objective (Zeiss Axiovert S100 microscope Carl Zeiss UK, Welwyn Garden City, UK). Only compound concentrations were total branching inhibition was evident were accounted as positive. Method was used as previously described, with some modifications (Thompson E W, et al. Association of increased basement membrane invasiveness with absence of estrogen receptor and expression of vimentin in human breast cancer cell lines. J Cell Physiol 1992; 150:534-44).

[9] = test system: cells; assay: Boyden chamber migration assay (Table VI); format: cell-based; conditions: Homo sapiens, Hs-578T, 16 h, Hs578T cells; 16 h migration
Protocol: The Boyden chamber assay is based on a chamber of two medium-filled compartments separated by a microporous membrane of 8 μM (Cell culture insert 8.0 μM pore size, BD Biosciences, Bedford, Mass.). The boyden chamber migration assays were carried out according to the supplier's instructions. In general, 20000 cells are placed in the upper compartment with medium containing 0% FCS plus 0.1% BSA and are allowed to migrate 16 h through the pores of the membrane into the lower compartment, which is filled with cell culture medium containing 10% FCS as chemotactic agents. The cells remaining in the insert were removed with a cotton swab, and the cells on the bottom of the filter were fixed and counted. (Zhang Y X, et al. AXL is a potential target for therapeutic intervention in breast cancer progression. Cancer Res. 2008; 68:1905-15).

[10] = test system: viable cells in culture; assay: Cell viability assay at 10 μM (CellTiter-Glo, Table VII); format: cell-based; conditions: compound 10 μM, 72 h;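 further: graded A 0-20%; B 21-40%; C 41-60%; D over 60% viable cells relative to DMSO control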
Protocol: The CellTiter-Glo® Luminescent Cell Viability Assay (Promega Corporation. Madison, Wis., USA) is method a determining the number of viable cells in culture based on quantification of the ATP being present which is an indicator of metabolically active cells was used according to manufacturers protocol. In detail the assay was performed in a 96 well format were 1000 cells/well were incubated with compound at concentration 10 μM as well as DMSO control for 72 h in 100 μl cell culture medium. Percentage of inhibition was calculated compared to ATP amount of DMSO control.

[11] = test system: Hs578T; assay: Matrigel outgrowth assay/branching assay; format: cell-based; conditions: Homo sapiens, Hs-578T; HS578T cell line; Table Ib; read-out: Total branching inhibition in Matrigel HS578T
How it was run: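 Cells (5000/well) were seeded onto polymerized 3 mg/ml Matrigel with compound at 3.125, 1.56 or 0.78 μM, or DMSO. Imaging by inverted microscopy at 48, 72 and 96 h scored invasive branching. Only concentrations giving total branching inhibition counted as positive.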

[12] = Homo sapiens, C8161 cells, read-out: IC50 Wound healing Assay C8161
[13] = SF763 cells, read-out: IC50 Wound healing Assay SF763
[14] = Homo sapiens, C8161 cells, read-out: Total branching inhibition in Matrigel C8161
[15] = Homo sapiens, Hs-578T, Hs578T cells, read-out: Total branching inhibition in Matrigel Hs578T
[16] = U118 cells, read-out: Total branching inhibition in Matrigel U118
[17] = U138 cells, read-out: Total branching inhibition in Matrigel U138
[18] = Homo sapiens, HCT-116, HCT116 def, read-out: percentage (%) of viable cells HCT 116def
[19] = Homo sapiens, HCT-116, HCT116 wt, read-out: percentage (%) of viable cells HCT 116wt
[20] = Homo sapiens, HT-29, HT29, read-out: percentage (%) of viable cells HT29
[21] = Homo sapiens, NCI-H358, H358, read-out: percentage (%) of viable cells H358
[22] = Homo sapiens, NCI-H1650, H1650, read-out: percentage (%) of viable cells H1650
[23] = Homo sapiens, NCI-H1666, H1666, read-out: percentage (%) of viable cells H1666
[24] = Homo sapiens, NCI-H1975, H1975, read-out: percentage (%) of viable cells H1975
[25] = Homo sapiens, NCI-H1993, H1993, read-out: percentage (%) of viable cells H1993
[26] = Homo sapiens, A549, read-out: percentage (%) of viable cells A549
[27] = Homo sapiens, HCC827, read-out: percentage (%) of viable cells HCC827
[28] = Homo sapiens, SW480, read-out: percentage (%) of viable cells SW480
[29] = RKO, read-out: percentage (%) of viable cells RKO

Row | IC50 [1] | IC50 [2] | IC50 [3] | IC50 [4] | IC50 [6] | IC50 [7, 12] | IC50 [7, 13] | IC50 [8, 14] | IC50 [8, 15] | IC50 [8, 16] | IC50 [8, 17] | IC50 [9] | Structure (SMILES) | viability at 10 µM [10, 18] | viability at 10 µM [10, 19] | viability at 10 µM [10, 20] | viability at 10 µM [10, 21] | viability at 10 µM [10, 22] | viability at 10 µM [10, 23] | viability at 10 µM [10, 24] | viability at 10 µM [10, 25] | also measured
1 | 12.5 to 50 µM | ≤ 12.5 µM | 12.5 to 50 µM | 12.5 to 50 µM | 12.5 to 50 µM | ≤ 12.5 µM | ≤ 12.5 µM | ≤ 5 µM | ≤ 5 µM | ≤ 5 µM | 5 to 50 µM | ≤ 5 µM | COc1cc2c(Oc3ccc(NS(=O)(=O)c4cc(F)ccc4F)cc3F)ccnc2cc1OCC1CCCNC1 (centres unmarked) [Example 80, 2,5-Difluoro-N-{3-fluoro-4-[6-methoxy-7-(piperidin-3-ylmethoxy)-quinolin-4-yloxy]-phenyl}-benzenesulfonamide] | 21 to 40% | 21 to 40% | 41 to 60% | 0 to 20% | > 60% | 21 to 40% | 0 to 20% | 0 to 20% | IC50 [5]: ≤ 12.5 µM; viability at 10 µM [10, 26]: > 60%; viability at 10 µM [10, 27]: 21 to 40%; viability at 10 µM [10, 28]: 0 to 20%; viability at 10 µM [10, 29]: 0 to 20%
2 | ≤ 12.5 µM | ≤ 12.5 µM | ≤ 12.5 µM | ≤ 12.5 µM | ≤ 12.5 µM | 12.5 to 50 µM | ≤ 12.5 µM | ≤ 5 µM | ≤ 5 µM | ≤ 5 µM | ≤ 5 µM | ≤ 5 µM | COc1cc2c(Oc3ccc(NS(=O)(=O)c4ccccc4C#N)cc3F)ccnc2cc1OCCCN1CCN(C)CC1 [Example 15, 2-Cyano-N-(3-fluoro-4-{6-methoxy-7-[3-(4-methyl-piperazin-1-yl)-propoxy]-quinolin-4-yloxy}-phenyl)-benzenesulfonamide] | > 60% | > 60% | 41 to 60% | 41 to 60% | 41 to 60% | 41 to 60% | 41 to 60% | 21 to 40% | IC50 [11]: ≤ 10 µM; viability at 10 µM [10, 26]: > 60%; viability at 10 µM [10, 27]: > 60%; viability at 10 µM [10, 28]: 21 to 40%; viability at 10 µM [10, 29]: 41 to 60%; melting point: 109 to 111 °C
3 | ≤ 12.5 µM | ≤ 12.5 µM | 12.5 to 50 µM | ≤ 12.5 µM | ≤ 12.5 µM | 12.5 to 50 µM | 12.5 to 50 µM | ≤ 5 µM | 5 to 50 µM | ≤ 5 µM | 5 to 50 µM | ≤ 5 µM | CCN(CC)CCCOc1cc2nccc(Oc3ccc(NS(=O)(=O)c4ccccc4C(F)(F)F)cc3F)c2cc1OC [Example 101, N-{4-[7-(3-Diethylamino-propoxy)-6-methoxy-quinolin-4-yloxy]-3-fluoro-phenyl}-2-trifluoromethyl-benzenesulfonamide] | 21 to 40% | 21 to 40% | 0 to 20% | 0 to 20% | 41 to 60% | 41 to 60% | 41 to 60% | 21 to 40% | IC50 [11]: 10 to 25 µM; viability at 10 µM [10, 26]: 41 to 60%; viability at 10 µM [10, 27]: 21 to 40%; viability at 10 µM [10, 28]: 0 to 20%; viability at 10 µM [10, 29]: 0 to 20%
4 | ≤ 12.5 µM | ≤ 12.5 µM | ≤ 12.5 µM | ≤ 12.5 µM | ≤ 12.5 µM | 12.5 to 50 µM | 12.5 to 50 µM | ≤ 5 µM | 5 to 50 µM | 5 to 50 µM | ≤ 5 µM | ≤ 5 µM | COc1cc2c(Oc3ccc(NS(=O)(=O)c4ccc(F)cc4F)cc3F)ccnc2cc1OCCCN1CCN(C)CC1 [Example 16, 2,4-Difluoro-N-(3-fluoro-4-{6-methoxy-7-[3-(4-methyl-piperazin-1-yl)-propoxy]-quinolin-4-yloxy}-phenyl)-benzenesulfonamide] | 41 to 60% | 41 to 60% | 21 to 40% | 0 to 20% | 21 to 40% | 41 to 60% | 0 to 20% | 21 to 40% | viability at 10 µM [10, 26]: 41 to 60%; viability at 10 µM [10, 27]: 41 to 60%; viability at 10 µM [10, 28]: 0 to 20%; viability at 10 µM [10, 29]: 21 to 40%; melting point: 99 to 102 °C
